Source: patent EP1591123A1, “USES OF NARINGENIN, NARINGIN AND SALTS THEREOF AS EXPECTORANTS IN THE TREATMENT OF COUGH, AND COMPOSITIONS THEREOF” (Su, Wei-wei, priority 2003, dated 2004)
Entries after “also recorded” stand apart in the source; their conditions may differ. Structures can show the parent of a compound that is named as a salt.

What was measured:
NIH mice = test: Antitussive test of Naringin, spraying with concentrated ammonia liquor (Example 28); type: in vivo; conditions: for R Value: EDT50 of the treatment / EDT50 of the control x 100%; for EDT50: mice, intra-gastrointestinal, ammonia spray 1 hour after dosing
Text: 1.Animals: As the stock animals, totally 130 NIH mice, male, each weighed 18.2~21.7g within ordinary standard. Weigh and number each mice accurately first, then pick out the 120 healthy ones who weighed in range from 18.5~21.0g. Ranked in weigh, they were divided into 8 groups in random with each 15. Set up reference groups of negative and positive, and sample groups of high-dose, mid-dose, low-dose Naringin and sodium Naringinate.
• 1) Blank control group: physiological saline, 0.9% NaCl; • 2) Positive control group: 30 mg dextromethorphan hydrobromide was weighed into a 20ml volumetric flask, and physiological saline was accurately added to the volume to obtain the solution for positive control at concentration of 5mg/ml° • 3) Group of low-dose sample Naringin: Proper amount of Naringin was weighed into a suitable volumetric flask, and physiological saline was added to the volume to obtain the solution at concentration of 0.5mg/ml. • 4) Group of mid-dose sample Naringin: Proper amount of Naringin was weighed into a suitable volumetric flask, and physiological saline was added to the volume to obtain the solution at concentration of 1.5mg/ml. • 5) Group of high-dose sample Naringin: Proper amount of Naringin was weighed into a suitable volumetric flask, and physiological saline was added to the volume to obtain the solution at concentration of 4.5mg/ml. • 6) Group of low-dose sample sodium Naringinate: Proper amount of sodium Naringin was weighed into a suitable volumetric flask, and physiological saline was added to the volume to obtain the solution at concentration of 0.5mg/ml. • 7) Group of mid-dose sample sodium Naringinate: Proper amount of sodium Naringin was weighed into a suitable volumetric flask, and physiological saline was added to the volume to obtain the solution at concentration of 1.5mg/ml. • 8) Group of high-dose sample sodium Naringinate: Proper amount of sodium Naringin was weighed into a suitable volumetric flask, and physiological saline was added to the volume to obtain the solution at concentration of4.5mg/ml.
One hour after intra-gastrointestinal administering for the mice, spray with concentrated ammonia liquor for certain intervals. Immediately the spraying was over, put away the mice outside and observe the tussive action. Mark down the times for which they coughed within 1 minute. Only when they coughed, which was characteristic of compression of abdomen or chest with their mouths open, and making coughing noise, for more than 3 times within a minute, tussive action could be admitted.
Calculate the median effective dose(EDT50) with sequential trials. Work out the amount of R with the formula below. If R is greater than 130%, it means the drug will be effective on antitussive action. If R is greater than 150%, it means the drug will be remarkably effective on antitussive action. The formula is shown as below: R =(EDT50 of the treatmnet)/(EDT50 of the control)× 100% [formula] EDT50=log-1c/n(n for amount of animals, c for summation of rx, r for amount of animals in each group, x for logarithm of the dose (time for spraying) )

NIH little mice = test: Toxicological experiment, single oral dose, 10 days observation (Examples 32-35); type: in vivo; conditions: for dosage without toxic reaction as multiple of the normal dosage: oral dosage tested relative to normal dose for human beings; for changes in little mice's weight / toxic reaction / deaths of little mice / pathological inspection of each apparatus: oral; for changes in little mice's weight / toxic reaction: ten days; for deaths of little mice / pathological inspection of each apparatus: tenth day
Description: (§1) With temperature in the range of 24±1 °C and humidity in the range of 65±5 %,choose 20 NIH little mice which are 7-8 years old ,healthy and clean, male and female for each half ,their weights are between 20 and 22 gram.. Antisepsis the feed and water, before and in the layoff period of the test, all the mice should be feed under the normal feeding condition.
(§2) Dissolve Naringin in 0.5 % Tween80, the concentration is 300mg/ml,this liquor is given to little mice by oral access, the dosage is 0.2ml/20g weight of little mice. After administration ,they are observed for 1,4,8,12 hours, and then once per 12 hours. Observe the deaths of little mice ,and record the changes in little mice's weight as well as other symptoms. In the tenth day, kill little mice by breaking their necks, and take each apparatus for pathological inspection.
as §1, with “of 25±1” for “of 24±1”, “of 75±5” for “of 65±5”, “[…], healthy” for “years old ,healthy”, “half , their” for “half ,their”, “between 18.5” for “between 20”, “and 20.5” for “and 22”
as §2, with “Naringin sodium salt medicine” for “Naringin”, “in brine,” for “in 0.5 % Tween80,”, “is 300mg/ml, this” for “is 300mg/ml,this”, “little mice, and” for “little mice ,and”, “mice's weights” for “mice's weight”, “pathological inspection.. […]” for “pathological inspection.”

[1] = 0.2 ml/20g of 0.5 mg/ml, listed as sodium naringinate
[2] = 0.2 ml/20g of 1.5 mg/ml, listed as sodium naringinate
[3] = 0.2 ml/20g of 4.5 mg/ml, listed as sodium naringinate

Row | Compound | Effect of relieving cough (NIH mice; 0.2 ml/20g of 0.5 mg/ml) | Effect of relieving cough (NIH mice; 0.2 ml/20g of 1.5 mg/ml) | Effect of relieving cough (NIH mice; 0.2 ml/20g of 4.5 mg/ml) | dosage without toxic reaction as multiple of the normal dosage (NIH little mice) | changes in little mice's weight (NIH little mice; 3.0g/kg) | deaths of little mice (NIH little mice; 3.0g/kg) | pathological inspection of each apparatus (NIH little mice; 3.0g/kg) | changes in little mice's weight (NIH little mice; 6.0g/kg) | toxic reaction (NIH little mice; 6.0g/kg) | deaths of little mice (NIH little mice; 6.0g/kg) | pathological inspection of each apparatus (NIH little mice; 6.0g/kg) | also measured
1 | C[C@@H]1O[C@@H](O[C@H]2[C@H](Oc3cc(O)c4c(c3)O[C@H](c3ccc(O)cc3)CC4=O)O[C@H](CO)[C@@H](O)[C@@H]2O)[C@H](O)[C@H](O)[C@H]1O [Naringin, 4', 5', 7-trihydroxyflavanone-7-rhamnoneglucoside] | effective (If R is greater than 130%, it means the drug will be effective on antitussive action) | remarkably effective (If R is greater than 150%, it means the drug will be remarkably effective on antitussive action) | remarkably effective (If R is greater than 150%, it means the drug will be remarkably effective on antitussive action) | 230 | weights of little mice are not found lightening | all little mice are still alive | pathological changes have not been found | – | – | – | – | R Value (NIH mice; 0.2 ml/20g of 0.5 mg/ml): 139.21%; R Value (NIH mice; 0.2 ml/20g of 1.5 mg/ml): 151.36%; R Value (NIH mice; 0.2 ml/20g of 4.5 mg/ml): 161.72%; resistance time against cough (NIH mice; compared with dextromethorphan hydrobromide): remarkably longer; EDT50 (NIH mice; 0.2 ml/20g of 0.5 mg/ml): 56.41 s; EDT50 (NIH mice; 0.2 ml/20g of 1.5 mg/ml): 61.33 s; EDT50 (NIH mice; 0.2 ml/20g of 4.5 mg/ml): 65.53 s; toxic reaction (NIH little mice; 3.0g/kg): toxic reaction can't be found; also recorded: haven't toxic reaction
2 | C[C@@H]1O[C@@H](O[C@H]2[C@H](Oc3cc(O)c4c(c3)O[C@H](c3ccc(O)cc3)CC4=O)O[C@H](CO)[C@@H](O)[C@@H]2O)[C@H](O)[C@H](O)[C@H]1O [sodium salt of Naringin] | effective (If R is greater than 130%, it means the drug will be effective on antitussive action) | remarkably effective (If R is greater than 150%, it means the drug will be remarkably effective on antitussive action) | remarkably effective (If R is greater than 150%, it means the drug will be remarkably effective on antitussive action) | 230 | weights of little mice are not found lightening | all little mice are still alive | pathological changes have not been found | – | – | – | – | R Value (NIH mice; [1]): 142.35%; R Value (NIH mice; [2]): 155.84%; R Value (NIH mice; [3]): 163.94%; EDT50 (NIH mice; [1]): 57.68 s; EDT50 (NIH mice; [2]): 63.15 s; EDT50 (NIH mice; [3]): 66.43 s; toxic reaction (NIH little mice; 3.0g/kg, listed as Naringin sodium salt): toxic reaction can't be found
3 | O=C1CC(c2ccc(O)cc2)Oc2cc(O)cc(O)c21 (stereo not drawn) [Naringenin, 4', 5, 7 -trihydroxyflavanone] | – | – | – | 460 | – | – | – | weights of little mice are not found lightening | toxic reaction can't be found; also recorded: hasn't toxic reaction | all little mice are still alive | pathological changes have not been found | –
4 | O=C1C[C@@H](c2ccc(O)cc2)Oc2cc(O)cc(O)c21 [sodium salt of Naringenin] | – | – | – | 460 | – | – | – | weights of little mice are not found lightening | toxic reaction can't be found | all the little mice are still alive | pathological changes have not been found | –
